Assay results taken from patent publication US20250228953A1, “INTRACELLULAR TARGETING OF OLIGONUCLEOTIDES” (Entrada Therapeutics, Inc., priority 2021, published 2025).

Key:
[1] = as reported by Tien, cited from earlier work; for SASA, Empirical / SASA, Theoretical: et al.
[2] = amino acid hydrophobicity scale; cited from earlier work
eGFP-654 transgene = test: eGFP protein restoration in liver by ELISA; type: in vivo, mouse; conditions: 1 week
Method: Experiments were performed to determine if GalNAc conjugation to PMO or PMO-EEV could improve liver efficacy of PMO or PMO-EEV in EGFP-654 mice (Sazani et al., Nat Biotechnol. 2002 December; 20(12):1228-33. doi: 10.1038/nbt759.) in a single dosing schedule. Mice (EGFP-654, n=3/group; one female and two male) were injected intravenously (IV) with saline as control and 20 mpk of PMO1 and PMO1-EEV1; 0.2, 2, and 20 mpk (all normalized based on PMO dose) GalNAc-PMO2 and GalNAc-PMO2-EEV1 via both intravenous (TV) and subcutaneous (SC) route of administration. Both the PMO1 and the PMO2 have the same sequence and can be conjugated to EEV at the 3′ end, however, they have different functional handles at 5′ end. […] Thus, PMO1 is used as a control to when exploring the GalNAc liver targeting effects of the PMO2 GalNAc conjugates. An overview of the study design is illustrated in FIG. 16.
eGFP-654 transgenic mouse. The eGFP-654 transgenic mouse line was generated previously for evaluating splice switching oligonucleotides (Sazani et al. 2002 Nat Biotech; JAX stock #027617). The eGFP-654 transgene was cloned under a hybrid promoter with a cytomegalovirus early enhancer element, chicken beta-actin, and rabbit beta-globin, yielding widespread expression throughout the body. […]
eGFP relative protein analysis by […] (ELISA). […] Concentration was measured using a bicinchoninic acid (BCA) assay according to the manufacturer's protocol (Pierce BCA Protein Assay Kit 23227), diluting with the lysis buffer as needed. […] Sample eGFP levels were analyzed using enzyme-linked immunosorbent assay (ELISA) analysis with Abcam GFP ELISA kit (ab171581) according to the manufacturer's protocol. Sample eGFP levels were interpolated using the standard curve with the ELISA kit and reported as mass of eGFP detected (as measured by ELISA) per mass of protein content in the tissue lysate (as measured by BCA assay). the pg/mL of protein detected in each sample divided by the total protein concentration of lysates in ug/ml. […]

Molecule: N[C@@H](Cc1c[nH]c2ccccc12)C(=O)O [Trp, Tryptophan]
- SASA, Empirical [1]: 264.0 Å^2
- SASA, Theoretical [1]: 285.0 Å^2
- SASA, Miller et al. (1987) [1]: 259.0 Å^2
- SASA, Rose et al. (1985) [1]: 266.3 Å^2
- Hydrophobicity, Eisenberg and Weiss [2]: 0.37
- Hydrophobicity, Engleman et al. [2]: 1.9
- Hydrophobicity, Janin [2]: 0.3
- Hydrophobicity, Kyrie and Doolittle [2]: −0.9

Molecule: CC[C@H](C)[C@H](N)C(=O)O [Ile, Isoleucine]
- SASA, Empirical [1]: 195.0 Å^2
- SASA, Theoretical [1]: 197.0 Å^2
- SASA, Miller et al. (1987) [1]: 182.0 Å^2
- SASA, Rose et al. (1985) [1]: 181.0 Å^2
- Hydrophobicity, Eisenberg and Weiss [2]: 0.73
- Hydrophobicity, Engleman et al. [2]: 3.1
- Hydrophobicity, Janin [2]: 0.7
- Hydrophobicity, Kyrie and Doolittle [2]: 4.5

Molecule: C[C@H](N)C(=O)O [Ala, Alanine]
- SASA, Empirical [1]: 121.0 Å^2
- SASA, Theoretical [1]: 129.0 Å^2
- SASA, Miller et al. (1987) [1]: 113.0 Å^2
- SASA, Rose et al. (1985) [1]: 118.1 Å^2
- Hydrophobicity, Eisenberg and Weiss [2]: 0.25
- Hydrophobicity, Engleman et al. [2]: 1.6
- Hydrophobicity, Janin [2]: 0.3
- Hydrophobicity, Kyrie and Doolittle [2]: 1.8

Molecule: N[C@@H](CC(=O)O)C(=O)O [Asp, Aspartic acid]
- SASA, Empirical [1]: 187.0 Å^2
- SASA, Theoretical [1]: 193.0 Å^2
- SASA, Miller et al. (1987) [1]: 151.0 Å^2
- SASA, Rose et al. (1985) [1]: 158.7 Å^2
- Hydrophobicity, Eisenberg and Weiss [2]: −0.72
- Hydrophobicity, Engleman et al. [2]: −9.2
- Hydrophobicity, Janin [2]: −0.6
- Hydrophobicity, Kyrie and Doolittle [2]: −3.5

Molecule: CC(C)[C@H](N)C(=O)O [Val, Valine]
- SASA, Empirical [1]: 165.0 Å^2
- SASA, Theoretical [1]: 174.0 Å^2
- SASA, Miller et al. (1987) [1]: 160.0 Å^2
- SASA, Rose et al. (1985) [1]: 164.5 Å^2
- Hydrophobicity, Eisenberg and Weiss [2]: 0.54
- Hydrophobicity, Engleman et al. [2]: 2.6
- Hydrophobicity, Janin [2]: 0.6
- Hydrophobicity, Kyrie and Doolittle [2]: 4.2

Molecule: PMO3-GalNAc-EEV1: "EEV1 was reacted with compound PMO1-Lys(BCN) with the following sequence (5′-GCT ATT ACC TTA ACC CAG-3′)"; "GalNAc-N3 was then reacted with PMO1-Lys(BCN)-EEV1" (DNA GCTATTACCTTAACCCAG; all phosphorodiamidate morpholino (PMO); PMO with Lys(BCN) linker bearing GalNAc and EEV1 cell-penetrating peptide)
- fold enhancement of efficacy compared to PMO1 (eGFP-654 transgene; liver eGFP, 20 mpk IV): 14 fold
- fold enhancement of efficacy compared to PMO1-EEV1 (eGFP-654 transgene; liver eGFP, 20 mpk IV): 8.9 fold

Molecule: N[C@@H](CCC(=O)O)C(=O)O [Glu, Glutamic acid]
- SASA, Empirical [1]: 214.0 Å^2
- SASA, Miller et al. (1987) [1]: 183.0 Å^2
- SASA, Rose et al. (1985) [1]: 186.2 Å^2
- Hydrophobicity, Eisenberg and Weiss [2]: −0.62
- Hydrophobicity, Engleman et al. [2]: −8.2
- Hydrophobicity, Janin [2]: −0.7
- Hydrophobicity, Kyrie and Doolittle [2]: −3.5

Molecule: Cyclo(FGFRRRRQ)-PEG12-OH (cyclo(FGFRRRRQ); also: PEG12-OH attached, position not clear) [EEV6]
- eGFP protein restoration, different EEVs / GalNAc ligands conjugated to GalNAc-PMO2 constructs (eGFP-654 transgene; liver, 20 mpk PMO equivalent IV): highest eGFP protein restoration

Molecule: NCC(=O)O [Gly, Glycine]
- SASA, Empirical [1]: 97.0 Å^2
- SASA, Theoretical [1]: 104.0 Å^2
- SASA, Miller et al. (1987) [1]: 85.0 Å^2
- SASA, Rose et al. (1985) [1]: 88.1 Å^2

Molecule: C[C@@H](O)[C@H](N)C(=O)O [Thr, Threonine]
- SASA, Empirical [1]: 163.0 Å^2
- SASA, Theoretical [1]: 172.0 Å^2
- SASA, Miller et al. (1987) [1]: 146.0 Å^2
- SASA, Rose et al. (1985) [1]: 152.5 Å^2
- Hydrophobicity, Eisenberg and Weiss [2]: −0.18
- Hydrophobicity, Engleman et al. [2]: 1.2
- Hydrophobicity, Janin [2]: −0.2
- Hydrophobicity, Kyrie and Doolittle [2]: −0.7

Molecule: N[C@@H](Cc1ccc(O)cc1)C(=O)O [Tyr, Tyrosine]
- SASA, Empirical [1]: 255.0 Å^2
- SASA, Theoretical [1]: 263.0 Å^2
- SASA, Miller et al. (1987) [1]: 229.0 Å^2
- SASA, Rose et al. (1985) [1]: 236.8 Å^2
- Hydrophobicity, Eisenberg and Weiss [2]: 0.02
- Hydrophobicity, Engleman et al. [2]: −0.7
- Hydrophobicity, Janin [2]: −0.4
- Hydrophobicity, Kyrie and Doolittle [2]: −1.3

Molecule: CSCC[C@H](N)C(=O)O [Met, Methionine]
- SASA, Empirical [1]: 203.0 Å^2
- SASA, Theoretical [1]: 224.0 Å^2
- SASA, Miller et al. (1987) [1]: 204.0 Å^2
- SASA, Rose et al. (1985) [1]: 203.4 Å^2
- Hydrophobicity, Eisenberg and Weiss [2]: 0.26
- Hydrophobicity, Engleman et al. [2]: 3.4
- Hydrophobicity, Janin [2]: 0.4
- Hydrophobicity, Kyrie and Doolittle [2]: 1.9

Molecule: N[C@@H](CO)C(=O)O [Ser, Serine]
- SASA, Empirical [1]: 143.0 Å^2
- SASA, Theoretical [1]: 155.0 Å^2
- SASA, Miller et al. (1987) [1]: 122.0 Å^2
- SASA, Rose et al. (1985) [1]: 129.8 Å^2
- Hydrophobicity, Eisenberg and Weiss [2]: −0.26
- Hydrophobicity, Engleman et al. [2]: 0.6
- Hydrophobicity, Janin [2]: −0.1
- Hydrophobicity, Kyrie and Doolittle [2]: −0.8

Molecule: NCCCC[C@H](N)C(=O)O [Lys, Lysine]
- SASA, Empirical [1]: 230.0 Å^2
- SASA, Theoretical [1]: 236.0 Å^2
- SASA, Miller et al. (1987) [1]: 211.0 Å^2
- SASA, Rose et al. (1985) [1]: 225.8 Å^2
- Hydrophobicity, Eisenberg and Weiss [2]: −1.10
- Hydrophobicity, Engleman et al. [2]: −8.8
- Hydrophobicity, Janin [2]: −1.8
- Hydrophobicity, Kyrie and Doolittle [2]: −3.9

Molecule: N=C(N)NCCC[C@H](N)C(=O)O [Arg, Arginine]
- Hydrophobicity, Eisenberg and Weiss [2]: −1.80
- Hydrophobicity, Engleman et al. [2]: −12.3
- Hydrophobicity, Janin [2]: −1.4
- Hydrophobicity, Kyrie and Doolittle [2]: −4.5

Molecule: N[C@@H](CS)C(=O)O [Cys, Cysteine]
- SASA, Empirical [1]: 148.0 Å^2
- SASA, Theoretical [1]: 167.0 Å^2
- SASA, Miller et al. (1987) [1]: 140.0 Å^2
- SASA, Rose et al. (1985) [1]: 146.1 Å^2
- Hydrophobicity, Eisenberg and Weiss [2]: 0.04
- Hydrophobicity, Engleman et al. [2]: 2.0
- Hydrophobicity, Janin [2]: 0.9
- Hydrophobicity, Kyrie and Doolittle [2]: 2.5

Molecule: N=C(N)NCCC[C@H](N)C(=O)O [Arginine, arginine]
- SASA, Empirical [1]: 265.0 Å^2
- SASA, Theoretical [1]: 274.0 Å^2
- SASA, Miller et al. (1987) [1]: 241.0 Å^2
- SASA, Rose et al. (1985) [1]: 256.0 Å^2

Molecule: O=C(O)[C@@H]1CCCN1 [Pro, Proline]
- SASA, Empirical [1]: 154.0 Å^2
- SASA, Miller et al. (1987) [1]: 143.0 Å^2
- SASA, Rose et al. (1985) [1]: 146.8 Å^2

Molecule: N[C@@H](Cc1ccccc1)C(=O)O [Phe, Phenylalanine]
- SASA, Empirical [1]: 228.0 Å^2
- SASA, Theoretical [1]: 240.0 Å^2
- SASA, Miller et al. (1987) [1]: 218.0 Å^2
- SASA, Rose et al. (1985) [1]: 222.8 Å^2
- Hydrophobicity, Eisenberg and Weiss [2]: 0.61
- Hydrophobicity, Engleman et al. [2]: 3.7
- Hydrophobicity, Janin [2]: 0.5
- Hydrophobicity, Kyrie and Doolittle [2]: 2.8

Molecule: N[C@@H](Cc1c[nH]cn1)C(=O)O [His, Histidine]
- SASA, Empirical [1]: 216.0 Å^2
- SASA, Theoretical [1]: 224.0 Å^2
- SASA, Miller et al. (1987) [1]: 194.0 Å^2
- SASA, Rose et al. (1985) [1]: 202.5 Å^2
- Hydrophobicity, Eisenberg and Weiss [2]: −0.40
- Hydrophobicity, Engleman et al. [2]: −3.0
- Hydrophobicity, Janin [2]: −0.1
- Hydrophobicity, Kyrie and Doolittle [2]: −3.2

Molecule: NC(=O)C[C@H](N)C(=O)O [Asn, Asparagine]
- SASA, Empirical [1]: 187.0 Å^2
- SASA, Theoretical [1]: 195.0 Å^2
- SASA, Miller et al. (1987) [1]: 158.0 Å^2
- SASA, Rose et al. (1985) [1]: 165.5 Å^2
- Hydrophobicity, Eisenberg and Weiss [2]: −0.64
- Hydrophobicity, Engleman et al. [2]: −4.8
- Hydrophobicity, Janin [2]: −0.5
- Hydrophobicity, Kyrie and Doolittle [2]: −3.5
